Experimental data as given in PubChem BioAssay (NCI).
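Exposure lasted 48 hours, with cells grown in 96-well plates and compounds tested at five concentrations. GI50 = concentration required for 50% inhibition of growth. TGI denotes the concentration required for complete inhibition of growth.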

Experiments:
Experiment in all cases: NCI anticancer screen, dose series, 48 h
IGROV1 ovarian = system: IGROV1 ovarian
UO-31 renal = system: UO-31 renal
SK-MEL-2 melanoma = system: SK-MEL-2 melanoma
HCT-116 colon = system: HCT-116 colon
786-0 renal = system: 786-0 renal
K-562 leukemia = system: K-562 leukemia
RPMI-8226 leukemia = system: RPMI-8226 leukemia
SN12C renal = system: SN12C renal
HCC-2998 colon = system: HCC-2998 colon
HS 578T breast = system: HS 578T breast
SNB-75 CNS = system: SNB-75 CNS
HOP-92 NSCLC = system: HOP-92 NSCLC
SK-OV-3 ovarian = system: SK-OV-3 ovarian
A498 renal = system: A498 renal
CAKI-1 renal = system: CAKI-1 renal
OVCAR-3 ovarian = system: OVCAR-3 ovarian
CCRF-CEM leukemia = system: CCRF-CEM leukemia
ACHN renal = system: ACHN renal
MDA-MB-231 breast = system: MDA-MB-231 breast
SF-268 CNS = system: SF-268 CNS
PC-3 prostate = system: PC-3 prostate
OVCAR-8 ovarian = system: OVCAR-8 ovarian
NCI-H23 lung = system: NCI-H23 lung
UACC-257 melanoma = system: UACC-257 melanoma
SW-620 colon = system: SW-620 colon
A549 NSCLC = system: A549 NSCLC
MCF7 breast = system: MCF7 breast
M14 melanoma = system: M14 melanoma

## CC[C@]1(O)CC2CN(CCc3c([nH]c4ccccc34)C(C(=O)OC)(c3cc4c(cc3OC)N(C=O)[C@H]3[C@@](O)(C(=O)OC)[C@H](OC(C)=O)[C@]5(CC)[C@@H]6C[C@@H]6CN6CC[C@]43[C@@H]65)C2)C1 (some centres undefined)
IGROV1 ovarian
  GI50: < 3.25 nM
  TGI: > 18000 nM
UO-31 renal
  GI50: 173 nM
  TGI: > 19400 nM
SK-MEL-2 melanoma
  GI50: < 3.25 nM
  TGI: 3670 nM
HCT-116 colon
  GI50: < 3.25 nM
  TGI: 3.52 nM
786-0 renal
  GI50: < 3.25 nM
  TGI: 6650 nM
K-562 leukemia
  GI50: < 3.25 nM
  TGI: 4840 nM
RPMI-8226 leukemia
  GI50: < 3.25 nM
  TGI: 57.9 nM
SN12C renal
  GI50: < 3.25 nM
  TGI: > 32500 nM
HCC-2998 colon
  GI50: < 3.25 nM
  TGI: 9230 nM
HS 578T breast
  GI50: < 3.25 nM
  TGI: > 32500 nM
SNB-75 CNS
  GI50: < 3.25 nM
  TGI: 13400 nM
HOP-92 NSCLC
  GI50: < 3.25 nM
  TGI: 12.1 nM
SK-OV-3 ovarian
  GI50: < 3.25 nM
  TGI: < 3.25 nM
A498 renal
  GI50: < 3.25 nM
  TGI: 8.82 nM
CAKI-1 renal
  GI50: 32.4 nM
  TGI: 12200 nM
OVCAR-3 ovarian
  GI50: < 3.25 nM
  TGI: < 3.25 nM
CCRF-CEM leukemia
  GI50: < 3.25 nM
  TGI: 155 nM
ACHN renal
  GI50: 13.9 nM
  TGI: > 23500 nM
MDA-MB-231 breast
  GI50: < 3.25 nM
  TGI: 191 nM
SF-268 CNS
  GI50: < 3.25 nM
  TGI: 7390 nM
PC-3 prostate
  GI50: < 3.25 nM
  TGI: > 12300 nM
OVCAR-8 ovarian
  GI50: < 3.25 nM
NCI-H23 lung
  GI50: < 3.25 nM
UACC-257 melanoma
  GI50: < 3.25 nM
  TGI: 4370 nM
SW-620 colon
  GI50: < 3.25 nM
  TGI: > 32500 nM
A549 NSCLC
  GI50: < 3.25 nM
  TGI: > 30700 nM
MCF7 breast
  GI50: < 3.25 nM
  TGI: > 11700 nM
M14 melanoma
  GI50: < 3.25 nM
  TGI: 4.78 nM
